Results as given in ChEMBL document CHEMBL1201862, “PubChem BioAssay data set” (2004).
Blank lines part the entries; values can stand above or below the compound they belong to. Calls of active or inactive are those of the source.

Columns and labels:
[1] = inhibitors of cytokine-induced nitrite release, dose response, cell-based, Griess absorbance, INS-1E, dry powder, set 3 (AID 488870); assay type: functional; conditions: Rattus norvegicus
[2] = tested on: INS1; assay: protection of INS-1E cells from cytokine death, dose response, ATP luminescence, dry powder (AID 488844); assay type: functional, cell-based; conditions: Rattus norvegicus
[3] = tested on: INS1; assay: inhibitors of cytokine-induced nitrite release, dose response, cell-based, Griess absorbance, INS-1E, dry powder, set 2 (AID 488868); assay type: functional; conditions: Rattus norvegicus
[4] = tested on: INS1; assay: protection from cytokine-driven beta-cell apoptosis, dose response, JC-1 fluorescence, INS-1E, dry powder, set 2 (AID 488867); assay type: functional, cell-based; conditions: Rattus norvegicus
[5] = tested on: INS1; assay: caspase-3/7 inhibition in cytokine-treated INS-1E, dose response, beta-cell apoptosis inhibitor project, cell-based, caspase luminescence, dry powder (AID 488848); assay type: functional; conditions: Rattus norvegicus
[6] = molecular target: T1, Sentrin-specific protease 6 (Homo sapiens, UniProt Q9GZR1); assay: SENP6 protease inhibitors, SAR follow-up, biochemical, luminescence, set 2 (AID 588598); assay type: functional
T1 sequence (Q9GZR1 whole entry): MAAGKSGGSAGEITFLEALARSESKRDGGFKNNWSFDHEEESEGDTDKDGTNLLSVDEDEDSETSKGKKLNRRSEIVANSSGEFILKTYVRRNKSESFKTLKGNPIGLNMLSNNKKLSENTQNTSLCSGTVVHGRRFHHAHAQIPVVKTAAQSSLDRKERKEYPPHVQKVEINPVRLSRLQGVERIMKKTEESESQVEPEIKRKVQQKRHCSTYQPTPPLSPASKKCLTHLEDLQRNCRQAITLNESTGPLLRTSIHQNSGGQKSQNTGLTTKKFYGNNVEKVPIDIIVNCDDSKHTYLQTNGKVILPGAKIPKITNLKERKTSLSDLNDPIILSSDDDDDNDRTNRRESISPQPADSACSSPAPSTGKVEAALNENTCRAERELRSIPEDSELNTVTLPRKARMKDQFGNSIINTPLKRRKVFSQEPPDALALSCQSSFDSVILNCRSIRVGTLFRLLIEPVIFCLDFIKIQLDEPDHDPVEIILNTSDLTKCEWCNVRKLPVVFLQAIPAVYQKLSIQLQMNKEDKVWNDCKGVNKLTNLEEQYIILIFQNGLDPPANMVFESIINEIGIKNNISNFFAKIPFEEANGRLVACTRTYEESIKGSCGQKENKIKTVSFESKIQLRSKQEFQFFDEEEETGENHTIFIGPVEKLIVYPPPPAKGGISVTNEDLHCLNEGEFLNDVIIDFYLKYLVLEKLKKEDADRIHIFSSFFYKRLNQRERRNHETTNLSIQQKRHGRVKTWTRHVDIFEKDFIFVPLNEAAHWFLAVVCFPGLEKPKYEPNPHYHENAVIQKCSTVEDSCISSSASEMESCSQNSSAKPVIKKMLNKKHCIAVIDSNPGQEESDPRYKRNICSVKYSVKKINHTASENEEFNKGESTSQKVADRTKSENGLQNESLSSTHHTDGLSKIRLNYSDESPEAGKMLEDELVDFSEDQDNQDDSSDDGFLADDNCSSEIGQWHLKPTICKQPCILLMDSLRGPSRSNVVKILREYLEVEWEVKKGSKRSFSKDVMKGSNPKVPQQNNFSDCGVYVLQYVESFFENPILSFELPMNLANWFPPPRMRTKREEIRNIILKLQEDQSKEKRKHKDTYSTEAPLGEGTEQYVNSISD

[7] = molecular target: T2, Caspase-3 (Homo sapiens, UniProt P42574); assay: caspase-3 inhibitors as off-family protease, SAR follow-up, selectivity assay for SENP protease inhibitor project, biochemical, luminescence, set 2 (AID 588599); assay type: functional
T2 sequence (P42574 whole entry): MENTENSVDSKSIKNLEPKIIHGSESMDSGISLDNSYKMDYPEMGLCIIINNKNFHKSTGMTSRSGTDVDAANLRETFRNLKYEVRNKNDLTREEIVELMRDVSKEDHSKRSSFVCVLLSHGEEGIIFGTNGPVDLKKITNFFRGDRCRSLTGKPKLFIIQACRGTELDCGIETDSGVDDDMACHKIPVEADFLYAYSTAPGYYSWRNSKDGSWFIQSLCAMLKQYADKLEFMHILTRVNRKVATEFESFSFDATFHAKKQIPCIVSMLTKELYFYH

[8] = molecular target: T3, Sentrin-specific protease 7 (Homo sapiens, UniProt Q9BQF6); assay: SENP7 protease inhibitors, SAR follow-up, biochemical, luminescence, set 2 (AID 588600); assay type: functional
T3 sequence (Q9BQF6 whole entry): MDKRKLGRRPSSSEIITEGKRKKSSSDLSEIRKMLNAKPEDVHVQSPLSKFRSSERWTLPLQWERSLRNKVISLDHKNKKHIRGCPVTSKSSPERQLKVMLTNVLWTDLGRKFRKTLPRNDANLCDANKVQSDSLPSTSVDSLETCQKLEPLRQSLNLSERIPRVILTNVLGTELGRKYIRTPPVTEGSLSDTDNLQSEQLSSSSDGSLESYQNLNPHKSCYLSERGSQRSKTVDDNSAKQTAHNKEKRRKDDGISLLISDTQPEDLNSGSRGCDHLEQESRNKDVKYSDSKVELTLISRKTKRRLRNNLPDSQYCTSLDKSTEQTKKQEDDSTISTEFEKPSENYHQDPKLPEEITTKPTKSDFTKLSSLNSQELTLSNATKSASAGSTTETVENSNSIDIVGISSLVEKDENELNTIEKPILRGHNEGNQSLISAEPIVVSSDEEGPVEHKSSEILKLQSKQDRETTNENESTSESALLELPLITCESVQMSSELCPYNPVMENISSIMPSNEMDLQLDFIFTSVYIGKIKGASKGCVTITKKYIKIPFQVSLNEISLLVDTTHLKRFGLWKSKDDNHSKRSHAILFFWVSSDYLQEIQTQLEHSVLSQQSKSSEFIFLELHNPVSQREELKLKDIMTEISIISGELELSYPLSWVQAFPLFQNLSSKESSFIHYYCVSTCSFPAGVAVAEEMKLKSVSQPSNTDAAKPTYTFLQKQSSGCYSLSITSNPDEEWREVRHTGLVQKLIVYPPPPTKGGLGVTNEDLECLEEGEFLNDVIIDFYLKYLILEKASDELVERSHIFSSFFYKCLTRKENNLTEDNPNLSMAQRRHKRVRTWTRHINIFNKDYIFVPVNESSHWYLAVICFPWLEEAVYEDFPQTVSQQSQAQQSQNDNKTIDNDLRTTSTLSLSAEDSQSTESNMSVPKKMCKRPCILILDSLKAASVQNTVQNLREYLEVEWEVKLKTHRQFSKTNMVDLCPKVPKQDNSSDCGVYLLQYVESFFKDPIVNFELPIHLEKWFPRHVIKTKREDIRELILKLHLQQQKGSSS

[9] = molecular target: T4, Sentrin-specific protease 8 (Homo sapiens, UniProt Q96LD8); assay: SENP8 protease inhibitors, SAR follow-up, biochemical, luminescence, set 2 (AID 588601); assay type: functional
T4 sequence (Q96LD8 whole entry): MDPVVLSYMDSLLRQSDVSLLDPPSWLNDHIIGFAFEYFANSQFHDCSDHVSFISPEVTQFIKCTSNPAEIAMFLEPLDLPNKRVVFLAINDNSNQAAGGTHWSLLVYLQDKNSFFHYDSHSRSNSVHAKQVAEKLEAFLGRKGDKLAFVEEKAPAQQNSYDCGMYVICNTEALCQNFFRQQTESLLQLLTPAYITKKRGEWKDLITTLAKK

[10] = molecular target: Phospholipase D2 (Homo sapiens, UniProt O14939); assay: PLD2 inhibitor potency in cells, dose response (AID 602147); assay type: functional;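 note: cellular assay in HEK293 cells overexpressing GFP-tagged PLD2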
Sequence of Phospholipase D2 (O14939 whole entry): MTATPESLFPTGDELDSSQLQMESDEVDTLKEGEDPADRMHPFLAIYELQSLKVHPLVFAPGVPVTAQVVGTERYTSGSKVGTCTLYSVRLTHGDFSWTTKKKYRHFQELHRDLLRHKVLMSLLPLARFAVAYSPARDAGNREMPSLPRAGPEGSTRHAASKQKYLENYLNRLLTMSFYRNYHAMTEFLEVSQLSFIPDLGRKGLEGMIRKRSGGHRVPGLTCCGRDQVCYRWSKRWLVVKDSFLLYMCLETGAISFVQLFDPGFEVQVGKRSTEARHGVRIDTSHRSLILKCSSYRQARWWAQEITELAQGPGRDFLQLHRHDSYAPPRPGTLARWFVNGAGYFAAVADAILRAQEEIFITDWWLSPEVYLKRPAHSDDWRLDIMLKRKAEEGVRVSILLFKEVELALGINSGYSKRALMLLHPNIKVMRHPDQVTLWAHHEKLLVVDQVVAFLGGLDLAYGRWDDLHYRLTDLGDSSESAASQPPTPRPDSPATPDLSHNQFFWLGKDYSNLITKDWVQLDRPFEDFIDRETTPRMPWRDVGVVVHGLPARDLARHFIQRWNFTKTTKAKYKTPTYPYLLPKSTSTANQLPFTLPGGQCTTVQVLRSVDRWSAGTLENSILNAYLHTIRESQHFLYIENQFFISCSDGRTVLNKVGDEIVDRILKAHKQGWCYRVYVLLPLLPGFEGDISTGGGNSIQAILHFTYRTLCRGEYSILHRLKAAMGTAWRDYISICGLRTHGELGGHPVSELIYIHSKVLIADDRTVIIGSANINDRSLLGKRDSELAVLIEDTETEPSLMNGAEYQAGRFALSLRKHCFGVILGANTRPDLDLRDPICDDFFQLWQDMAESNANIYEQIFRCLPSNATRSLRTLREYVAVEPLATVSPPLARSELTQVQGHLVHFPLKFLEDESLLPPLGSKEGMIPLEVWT

[11] = molecular target: Phospholipase D1 (Homo sapiens, UniProt Q13393); assay: PLD1 inhibitor potency in cells, dose response (AID 602151); assay type: functional;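 note: cellular PLD1 assay in Calu-1 cells stimulated with PMA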
Sequence of Phospholipase D1 (Q13393 whole entry): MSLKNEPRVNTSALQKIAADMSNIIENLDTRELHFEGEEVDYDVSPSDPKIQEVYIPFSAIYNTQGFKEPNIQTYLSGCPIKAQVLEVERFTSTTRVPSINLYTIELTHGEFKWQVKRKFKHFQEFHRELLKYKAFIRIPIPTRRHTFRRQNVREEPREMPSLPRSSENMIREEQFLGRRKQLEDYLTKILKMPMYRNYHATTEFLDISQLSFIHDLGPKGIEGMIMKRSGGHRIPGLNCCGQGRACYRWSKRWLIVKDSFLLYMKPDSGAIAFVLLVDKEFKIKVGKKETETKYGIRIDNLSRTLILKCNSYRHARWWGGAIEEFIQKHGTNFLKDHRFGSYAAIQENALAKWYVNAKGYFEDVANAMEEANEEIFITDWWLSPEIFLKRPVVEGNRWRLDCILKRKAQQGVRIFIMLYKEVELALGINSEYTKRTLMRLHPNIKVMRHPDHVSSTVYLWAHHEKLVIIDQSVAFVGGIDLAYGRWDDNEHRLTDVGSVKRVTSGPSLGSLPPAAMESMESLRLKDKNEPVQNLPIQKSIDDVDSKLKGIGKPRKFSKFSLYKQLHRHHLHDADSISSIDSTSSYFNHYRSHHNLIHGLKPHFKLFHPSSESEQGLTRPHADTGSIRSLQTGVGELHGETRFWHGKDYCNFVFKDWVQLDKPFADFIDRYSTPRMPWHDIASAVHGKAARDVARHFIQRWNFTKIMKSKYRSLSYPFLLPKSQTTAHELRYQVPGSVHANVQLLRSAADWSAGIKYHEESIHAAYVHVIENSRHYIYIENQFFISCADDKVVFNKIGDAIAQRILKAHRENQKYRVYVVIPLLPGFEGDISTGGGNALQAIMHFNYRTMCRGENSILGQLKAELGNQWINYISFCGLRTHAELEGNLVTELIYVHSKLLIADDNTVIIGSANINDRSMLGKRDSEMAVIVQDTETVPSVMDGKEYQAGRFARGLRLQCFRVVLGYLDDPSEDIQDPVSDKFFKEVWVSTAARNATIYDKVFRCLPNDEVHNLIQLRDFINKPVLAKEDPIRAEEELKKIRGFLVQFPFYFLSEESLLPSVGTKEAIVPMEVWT

[12] = molecular target: Sphingosine 1-phosphate receptor 2 (Homo sapiens, UniProt O95136); assay: Late-stage fluorescence-based dose-response cell-based counterscreen assay to identify agonists of the Sphingosine 1-Phosphate Receptor 3 (S1P3): Sphingosine 1-Phosphate Receptor 2 (S1P2) agonist assay.; assay type: functional
Sequence of Sphingosine 1-phosphate receptor 2 (O95136 whole entry): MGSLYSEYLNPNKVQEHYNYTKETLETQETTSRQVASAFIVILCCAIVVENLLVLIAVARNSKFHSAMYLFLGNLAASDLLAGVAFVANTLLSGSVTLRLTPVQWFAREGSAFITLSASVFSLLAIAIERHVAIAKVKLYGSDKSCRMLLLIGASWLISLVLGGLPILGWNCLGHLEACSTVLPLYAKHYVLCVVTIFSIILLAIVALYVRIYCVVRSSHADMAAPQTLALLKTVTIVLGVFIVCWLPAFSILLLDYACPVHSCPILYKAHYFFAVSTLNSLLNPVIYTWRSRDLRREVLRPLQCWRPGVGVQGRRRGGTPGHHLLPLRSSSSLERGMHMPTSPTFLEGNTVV

[13] = molecular target: T5, Sphingosine 1-phosphate receptor 4 (Homo sapiens, UniProt O95977); assay: Late-stage fluorescence-based dose-response cell-based counterscreen assay to identify agonists of the Sphingosine 1-Phosphate Receptor 3 (S1P3): Sphingosine 1-Phosphate Receptor 4 (S1P4) agonist assay.; assay type: functional
T5 sequence (O95977 whole entry): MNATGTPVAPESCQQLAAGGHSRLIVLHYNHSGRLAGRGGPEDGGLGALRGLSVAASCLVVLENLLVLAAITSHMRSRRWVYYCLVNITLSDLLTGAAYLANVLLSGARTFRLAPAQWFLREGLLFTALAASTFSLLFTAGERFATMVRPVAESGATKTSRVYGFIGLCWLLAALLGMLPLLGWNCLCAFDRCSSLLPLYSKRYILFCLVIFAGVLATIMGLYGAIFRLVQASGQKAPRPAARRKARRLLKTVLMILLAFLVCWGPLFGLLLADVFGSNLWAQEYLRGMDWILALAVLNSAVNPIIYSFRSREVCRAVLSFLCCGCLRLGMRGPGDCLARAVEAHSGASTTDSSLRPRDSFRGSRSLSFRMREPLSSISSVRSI

Compound: COc1ccc(S(=O)(=O)N(C)C[C@@H]2Oc3c(NC(=O)Nc4cccc5ccccc45)cccc3C(=O)N([C@@H](C)CO)C[C@H]2C)cc1
AC50 [1]: 26.4 µM (active)
AC50 [2]: 4.88 µM (active)
AC50 [3]: 46.8 µM (active)
AC50 [4]: 259 µM (active)
AC50 [5]: 81.2 µM (active)

IC50 [6]: > 99 µM (inactive)
IC50 [7]: > 99 µM (inactive)
IC50 [8]: > 99 µM (inactive)
Compound: Cc1ccccc1-c1noc(/C(C#N)=C\c2ccccc2F)n1
IC50 [9]: > 99 µM (inactive)

Compound: O=C(NCCN1CCC2(CC1)CCN(c1ccccc1)C2=O)c1cnc2ccccc2c1
IC50 [10]: 20 µM (active)
IC50 [11]: 20 µM (inactive)

EC50 [12]: > 50 µM (inactive)
EC50 [13]: > 50 µM (inactive)
Compound: O=C(c1ccc(C2CC2)o1)N(C1CCCCC1)C1CCCCC1
